Measured values from patent publication US11613525B2 (CTXT PTY LIMITED, priority 2018, dated 2023).
pEC50: −log10 of the molar value. Where a name gives a salt, the structure may show the parent alone. Read-outs that look alike come from different tables or passages of the source.

Columns and labels:
[1] = biological target: human STING (HAQ) (Homo sapiens, UniProt Q86WV6, G230A/H232R/R293Q); test: biochemical; type: binding; conditions: for ΔTm at 100 µM: read-out: DSF huSTING (HAQ) ΔTm (° C.)
Method: (§1) DSF monitors thermal unfolding of protein in the presence of a fluorescent dye and is typically performed using a real-time PCR instrument. The temperature at which a protein unfolds is measured by an increase in the fluorescence of a dye with affinity for hydrophobic parts of the protein that are gradually exposed during unfolding. The fluorescence of the dye is quenched in aqueous environments, but when the dye associates with hydrophobic sites on the unfolded protein, its fluorescence increases. The fluorescence intensity is plotted as a function of the temperature, generating a sigmoidal curve that can be described by a two-state transition. The inflection point of the transition curve (Tm) is calculated using simple equations such as that of Boltzman.
(§2) Sealed plates were then placed into a Bio-Rad CFX96/C1000 thermocycler and FRET scanning mode (λ^excitation of 490 nm and reads at λ^emission of 570 nm) was used to measure fluorescence intensity. […] The melting point (Tm) obtained for STING protein alone was subtracted from Tm obtained for protein incubated with ligand to generate ΔTm values listed in the table below.
(§3) These additional compounds were tested as described above, however the protein concentration was 2 μM.

[2] = biological target: huSTING (HAQ) (Homo sapiens (Human), UniProt Q86WV6, G230A/H232R/R293Q/R71H); test: THP-1 reporter cell line assay, THP-1 STING Lucia ISG cells; type: cell-based; conditions: THP-1 STING Lucia ISG cells, read-out: Cellular EC50 huSTING (HAQ)
[3] = biological target: T1, huSTING (WT) (Homo sapiens (Human), UniProt Q86WV6, H232R); test: THP-1 reporter cell line assay, THP-1-Dual KI-hSTING-R232 cells; type: cell-based; conditions: read-out: Cellular EC50 huSTING (WT)
Target sequence in this assay (Q86WV6 whole entry H232R): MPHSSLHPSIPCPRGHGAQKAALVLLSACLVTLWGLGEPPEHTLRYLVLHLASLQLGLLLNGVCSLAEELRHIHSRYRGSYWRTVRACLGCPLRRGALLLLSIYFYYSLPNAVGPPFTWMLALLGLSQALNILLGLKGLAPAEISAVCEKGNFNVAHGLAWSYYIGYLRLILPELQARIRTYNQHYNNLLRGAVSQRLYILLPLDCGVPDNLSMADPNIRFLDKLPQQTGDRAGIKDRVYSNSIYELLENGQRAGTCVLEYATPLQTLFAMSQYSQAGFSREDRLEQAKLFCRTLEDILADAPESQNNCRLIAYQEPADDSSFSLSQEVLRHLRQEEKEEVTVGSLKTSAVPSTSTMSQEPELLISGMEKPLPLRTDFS

[4] = biological target: T1, huSTING (WT); test: Differential scanning fluorimetry (DSF), huSTING (WT); type: binding
Method: as §1, §2, §3
Target sequence in this assay (Q86WV6 other isoform, or with tags, fused parts or gaps, stated change not applied): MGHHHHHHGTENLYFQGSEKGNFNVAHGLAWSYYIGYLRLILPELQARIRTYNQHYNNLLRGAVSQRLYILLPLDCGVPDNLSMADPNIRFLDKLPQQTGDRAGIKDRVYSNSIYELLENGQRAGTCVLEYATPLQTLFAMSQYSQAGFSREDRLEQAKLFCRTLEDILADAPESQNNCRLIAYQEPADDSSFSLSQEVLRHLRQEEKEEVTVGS

[5] = modified method, top concentration 40 μM, pin tool, EnVision

human STING (HAQ), sequence (Q86WV6 whole entry G230A/H232R/R293Q, looked up): as the sequence (Q86WV6 whole entry H232R) above, with G230A, R293Q counted along it
huSTING (HAQ), sequence (Q86WV6 whole entry R71H/G230A/H232R/R293Q): as the sequence (Q86WV6 whole entry H232R) above, with R71H, G230A, R293Q counted along it

Row | pEC50 [3] | pEC50 [2, 5] | SMILES | other results
1 | 5.51 | 6.74 | CCOC(=O)c1sc2cccc(C3CC3)c2c1COc1c(F)cc(C(N)=O)cc1F [Example 142, Ethyl 3-((4-carbamoyl-2,6-difluorophenoxy)methyl)-4-cyclopropylbenzo[b]thiophene-2-carboxylate] | –
2 | 6.03 | 7.64 | CCOC(=O)c1sc2c(C)ccc(Cl)c2c1COc1c(F)cc(C(N)=O)cc1F [Example 144, Ethyl 3-((4-carbamoyl-2,6-difluorophenoxy)methyl)-4-chloro-7-methylbenzo[b]thiophene-2-carboxylate] | –
3 | 5.42 | 6.13 | CCOC(=O)c1sc2c(CO)ccc(Cl)c2c1COc1c(F)cc(C(N)=O)cc1F [Example 145, Ethyl 3-((4-carbamoyl-2,6-difluorophenoxy)methyl)-4-chloro-7-(hydroxymethyl)benzo[b]thiophene-2-carboxylate] | –
4 | 5.67 | 7.39 | CCOC(=O)c1sc2c(COC)ccc(Cl)c2c1COc1c(F)cc(C(N)=O)cc1F [Example 146, Ethyl 3-((4-carbamoyl-2,6-difluorophenoxy)methyl)-4-chloro-7-(methoxymethyl)benzo[b]thiophene-2-carboxylate] | –
5 | 5.79 | 7.19 | CCOC(=O)c1sc2c(O)ccc(Cl)c2c1COc1c(F)cc(C(N)=O)cc1F [Example 147, Ethyl 3-((4-carbamoyl-2,6-difluorophenoxy)methyl)-4-chloro-7-hydroxybenzo[b]thiophene-2-carboxylate] | –
6 | 6.10 | 6.21 | CCOC(=O)c1sc2c(OC)ccc(Cl)c2c1COc1c(F)cc(C(N)=O)cc1F [Example 149, Ethyl 3-((4-carbamoyl-2,6-difluorophenoxy)methyl)-4-chloro-7-methoxybenzo[b]thiophene-2-carboxylate] | –
7 | 4.27 | 6.01 | CC(C)[C@H](N)C(=O)OCOC(=O)c1sc2cccc(Cl)c2c1COc1c(F)cc(C(N)=O)cc1F [Example 152, ((L-Valyl)oxy)methyl 3-((4-carbamoyl-2,6-difluorophenoxy)methyl)-4-chlorobenzo[b]thiophene-2-carboxylate trifluoroacetate salt] | –
8 | 6.68 | 6.89 | CCOC(=O)c1sc2c(C#N)ccc(Cl)c2c1COc1c(F)cc(C(N)=O)cc1F [Example 153, Ethyl 3-((4-carbamoyl-2,6-difluorophenoxy)methyl)-4-chloro-7-cyanobenzo[b]thiophene-2-carboxylate] | –
9 | 5.21 | 6.90 | CCOC(=O)c1sc2cccc(OC)c2c1COc1c(F)cc(C(N)=O)cc1F [Example 165, Ethyl 3-((4-carbamoyl-2,6-difluorophenoxy)methyl)-4-methoxybenzo[b]thiophene-2-carboxylate] | –
10 | 6.35 | 6.72 | CCOC(=O)c1sc2cncc(Cl)c2c1COc1c(F)cc(C(N)=O)cc1F [Example 170, Ethyl 3-((4-carbamoyl-2,6-difluorophenoxy)methyl)-4-chlorothieno[2,3-c]pyridine-2-carboxylate] | –
11 | 6.68 | 7.26 | CC(C)(C)C(=O)OCOC(=O)c1sc2cccc(Cl)c2c1COc1c(F)cc(C(N)=O)cc1F [Example 173, (Pivaloyloxy)methyl 3-((4-carbamoyl-2,6-difluorophenoxy)methyl)-4-chlorobenzo[b]thiophene-2-carboxylate] | –

Second part, the compound before the results:

Row | SMILES | pEC50 [3] | pEC50 [2, 5] | other results
12 | CCOC(=O)c1sc2cccc(F)c2c1COc1c(F)cc(C(N)=O)cc1F [Example 2, Ethyl 3-((4-carbamoyl-2,6-difluorophenoxy)methyl)-4-fluorobenzo[b]thiophene-2-carboxylate] | < 4.30 | – | ΔTm at 100 µM [1]: 1.44 °C; pEC50 ([2]; 24 h, top concentration 50 μM): 5.68
13 | CC(C)OC(=O)c1sc2cccc(F)c2c1COc1ccc(C(N)=O)cc1 [Example 4, Isopropyl 3-((4-carbamoylphenoxy)methyl)-4-fluorobenzo[b]thiophene-2-carboxylate] | < 4.30 | – | ΔTm at 100 µM [1]: 0.13 °C; pEC50 ([2]; 24 h, top concentration 50 μM): 5.59
14 | CCOC(=O)c1sc2cccc(Cl)c2c1COc1ccc(C(N)=O)cc1 [Example 7, Ethyl 3-((4-carbamoylphenoxy)methyl)-4-chlorobenzo[b]thiophene-2-carboxylate] | 5.05 | – | ΔTm at 100 µM [1]: 0.26 °C; pEC50 ([2]; 24 h, top concentration 50 μM): 6.15
15 | NC(=O)c1ccc(OCc2c(C(=O)O)sc3cccc(Cl)c23)cc1 [Example 8, 3-((4-Carbamoylphenoxy)methyl)-4-chlorobenzo[b]thiophene-2-carboxylic acid] | – | – | DSF huSTING (HAQ) ΔTm (° C.) ([1]; 1 μM protein, compound at 100 μM): 13.96 °C
16 | CC(C)(C)C(=O)OCOC(=O)c1sc2cccc(Cl)c2c1COc1ccc(C(N)=O)cc1 [Example 74, (Pivaloyloxy)methyl 3-((4-carbamoylphenoxy)methyl)-4-chlorobenzo[b]thiophene-2-carboxylate] | 5.61 | – | ΔTm at 100 µM ([4]; 1 μM protein, compound at 100 μM, read-out: DSF huSTING (WT) ΔTm (° C.)): -4.22 °C; pEC50 ([2]; 24 h, top concentration 50 μM): 5.98
17 | NC(=O)c1cc(F)c(OCc2c(C(=O)O)sc3cccc(Cl)c23)c(CO)c1 [Example 111, 3-((4-Carbamoyl-2-fluoro-6-(hydroxymethyl)phenoxy)methyl)-4-chlorobenzo[b]thiophene-2-carboxylic acid] | 4.76 | 4.79 | DSF huSTING (WT) ΔTm (° C.) ([4]; compound 100 μM, protein concentration 2 μM): 10.88 °C
18 | COC(=O)c1sc2cccc(F)c2c1COc1ccc(C(N)=O)cc1 [Example 141, Methyl 3-((4-carbamoylphenoxy)methyl)-4-fluorobenzo[b]thiophene-2-carboxylate] | 5.48 | 5.75 | –
19 | CCOC(=O)c1sc2cccc(Cl)c2c1COc1ccc(C(N)=O)c(COC)c1 [Example 150, Ethyl 3-((4-carbamoyl-3-(methoxymethyl)phenoxy)methyl)-4-chlorobenzo[b]thiophene-2-carboxylate] | 6.31 | 6.26 | –
20 | CCOC(=O)c1sc2cccc(Cl)c2c1COc1ccc(C(N)=O)c(-c2cn[nH]c2)c1 [Example 151, Ethyl 3-((4-carbamoyl-3-(1H-pyrazol-4-yl)phenoxy)methyl)-4-chlorobenzo[b]thiophene-2-carboxylate] | 5.46 | 5.74 | –
21 | COc1cccc2sc(C(=O)OC(C)C)c(COc3ccc(C(N)=O)cc3)c12 [Example 154, Isopropyl 3-((4-carbamoylphenoxy)methyl)-4-methoxybenzo[b]thiophene-2-carboxylate] | 5.69 | 6.35 | –
22 | COc1cccc2sc(C(=O)OC3CCCC3)c(COc3ccc(C(N)=O)cc3)c12 [Example 155, Cyclopentyl 3-((4-carbamoylphenoxy)methyl)-4-methoxybenzo[b]thiophene-2-carboxylate] | 5.42 | 6.64 | –
23 | COc1cccc2sc(C(=O)OCc3ccccc3)c(COc3ccc(C(N)=O)cc3)c12 [Example 156, Benzyl 3-((4-carbamoylphenoxy)methyl)-4-methoxybenzo[b]thiophene-2-carboxylate] | 5.35 | 6.20 | –
24 | COc1cccc2sc(C(=O)OCCN3CCOCC3)c(COc3ccc(C(N)=O)cc3)c12 [Example 157, 2-Morpholinoethyl 3-((4-carbamoylphenoxy)methyl)-4-methoxybenzo[b]thiophene-2-carboxylate] | 5.69 | 6.43 | –
25 | COC(=O)N1CCC(OC(=O)c2sc3cccc(Cl)c3c2COc2c(F)cc(C(N)=O)cc2F)CC1 [Example 163, Methyl 4-((3-((4-carbamoyl-2,6-difluorophenoxy)methyl)-4-chlorobenzo[b]thiophene-2-carbonyl)oxy)piperidine-1-carboxylate] | 5.81 | 7.21 | –
26 | CN1CC(OC(=O)c2sc3cccc(Cl)c3c2COc2c(F)cc(C(N)=O)cc2F)C1 [Example 164, 1-Methylazetidin-3-yl 3-((4-carbamoyl-2,6-difluorophenoxy)methyl)-4-chlorobenzo[b]thiophene-2-carboxylate] | 6.60 | 7.57 | –
27 | NC(=O)c1ccc(OCc2c(C(=O)NCc3ccccc3)sc3cccc(Br)c23)cc1 [Example 166, N-Benzyl-4-bromo-3-((4-carbamoylphenoxy)methyl)benzo[b]thiophene-2-carboxamide] | 4.54 | 5.00 | –
28 | C=Cc1cc(OCc2c(C(=O)OCC)sc3cccc(Cl)c23)ccc1C(N)=O [Example 168, Ethyl 3-((4-carbamoyl-3-vinylphenoxy)methyl)-4-chlorobenzo[b]thiophene-2-carboxylate] | < 4.40 | 5.13 | –
29 | Cc1ccc2sc(C(=O)OCOC(=O)C(C)(C)C)c(COc3ccc(C(N)=O)cc3)c2c1Cl [Example 174, (Pivaloyloxy)methyl 3-((4-carbamoylphenoxy)methyl)-4-chloro-5-methylbenzo[b]thiophene-2-carboxylate] | 4.59 | 5.33 | –
